Results on one compound are retold here after patent US9801880B2, “Use of kinase inhibitors” (BerGenBio AS, priority 2013, dated 2017).

In one test the target is T1, c-Kit (V560G) (Homo sapiens, UniProt P10721, V560G).
T1 construct: purchased EMD Millipore Corp. (KinaseProfiler service)
Nature of the test: KinaseProfiler kinase activity assay. The test is classed as biochemical.

The target in the next test is c-Kit (Homo sapiens, UniProt P10721). Description: biochemical. An excerpt: (§1) Detailed assay methodologies can be found in the relevant references cited herein, or in the KinaseProfiler Service Assay Protocols (v54, 2011) available from EMD Millipore (www.emdmillipore.com), or from the KinomeScan website (www.kinomescan.com), as appropriate. (For a more detailed description of KINOMEscan's assay technology, see: Fabian et al. A small molecule-kinase interaction map for clinical kinase inhibitors. Nat. Biotechnol. 23, 329-336 (2005)). A summary is provided below.
(§2) KinomeScan™ assays (DiscoveRx Corporation, San Diego, Calif., USA) are active-site-directed competition binding assays. […] The amount of kinase captured in test versus control samples is determined by using a qPCR method that detects the associated DNA label on each kinase molecule. Dissociation constants (Kd) for test compound-kinase interactions are calculated by measuring the amount of kinase captured on the solid support as a function of the test compound concentration.

Test [1] deals with T2, Abl (Homo sapiens, UniProt P00519). Nature of the test: biochemical.
Source text: as §1, §2

Another test addresses T3, c-Kit (V654A) (Homo sapiens, UniProt P10721, V654A).
T3 construct: purchased EMD Millipore Corp. (KinaseProfiler service)
Description: KinaseProfiler kinase activity assay. The test is classed as biochemical.

The target in a further test is Ret (V804L) (Homo sapiens, UniProt P07949, V804L). Description: KinaseProfiler kinase activity assay. The arrangement: purchased EMD Millipore Corp. (KinaseProfiler service). The format is biochemical. The conditions noted are these: ATP at Km. The text has this:
(§3) A summary is provided below.

Another test addresses Flt1 (Homo sapiens, UniProt P17948). Nature of the test: KinaseProfiler kinase activity assay. The arrangement: purchased EMD Millipore Corp. (KinaseProfiler service). The test is classed as biochemical. The conditions noted are these: ATP at Km.
Source text: as §3

The target of another test is TEK (Homo sapiens, UniProt Q02763). Description: KinaseProfiler kinase activity assay. The test is classed as biochemical. Conditions: ATP at Km. The arrangement: purchased EMD Millipore Corp. (KinaseProfiler service).
Source text: as §3

Another test deals with Flt3 (Homo sapiens, UniProt P36888). Description: KinaseProfiler kinase activity assay. Conditions: Flt3 wild-type; ATP at Km. The format is biochemical. Also noted: purchased EMD Millipore Corp. (KinaseProfiler service).
Source text: as §3

A further test deals with Ret (V804M) (Homo sapiens, UniProt P07949, V804M). Nature of the test: KinaseProfiler kinase activity assay. The format is biochemical. Also noted: purchased EMD Millipore Corp. (KinaseProfiler service). The conditions noted are these: ATP at Km.
Source text: as §3

The next test concerns the target Flt3 (D835Y) (Homo sapiens, UniProt P36888, D835Y). Description: KinaseProfiler kinase activity assay. The arrangement: purchased EMD Millipore Corp. (KinaseProfiler service). Conditions: ATP at Km. The test is classed as biochemical.
Source text: as §3

Another test addresses Stk10 (Homo sapiens, UniProt O94804). Nature of the test: KinaseProfiler kinase activity assay. The test is classed as biochemical. Conditions: Stk10 (LOK); ATP at Km. The arrangement: purchased EMD Millipore Corp. (KinaseProfiler service).
Source text: as §3

The target of a further test is Flt4 (Homo sapiens, UniProt P35916). Description: KinaseProfiler kinase activity assay. Also noted: purchased EMD Millipore Corp. (KinaseProfiler service). The conditions noted are these: ATP at Km. The test is classed as biochemical.
Source text: as §3

For the next test, the target named is Yes (Homo sapiens, UniProt P07947). Description: KinaseProfiler kinase activity assay. The test is classed as biochemical. Also noted: purchased EMD Millipore Corp. (KinaseProfiler service). The conditions noted are these: ATP at Km.
Source text: as §3

The next test addresses Wee1 (Homo sapiens, UniProt P30291). Nature of the test: KinaseProfiler kinase activity assay. The arrangement: purchased EMD Millipore Corp. (KinaseProfiler service). The format is biochemical. Conditions: ATP at Km.
Source text: as §3

The target of the next test is Ret (Homo sapiens, UniProt P07949). Description: KinaseProfiler kinase activity assay. The test is classed as biochemical. Also noted: purchased EMD Millipore Corp. (KinaseProfiler service). Conditions: ATP at Km.
Source text: as §3

Test [2] concerns Flt3 mutations D835H, D835Y, K663Q, and A829P. Nature of the test: Inhibition of Flt3 mutations (biochemical assays, format not stated).
Source text: as §3

For test [3], the system named is Ba/F3 cells expressing T315I mutated Bcr-Abl1 fusion protein. Description: WST-1 cell viability, Ba/F3 cells expressing Bcr-Abl1 T315I. The format is cell-based. Conditions: Mus musculus, BaF3, 48 hours, serum free, read-out: IB50 cell viability. How it is done: Ba/F3 cells either stably overexpressing Bcr-Abl1 (A) or the mutant Bcr-Abl1 T315I (B) were cultured overnight in serum free RPMI-1640 media supplemented with 2 mM glutamine, 100 U/mL penicillin and 100 μg/mL streptomycin (Sigma-Aldrich). The following day, cells were plated in a 96-well plate with each well containing 2000 cells in a volume of 100 μl serum free RMPI media. […] The 96 well plates were incubated for 48 hours, and cell viability was measured in a WST-1 assay (Roche). Briefly, 5 μl WST-1 solution was added to each well and the 96-well plate was incubated for another 2 hours. The readout was performed in an ELSA reader at 480 nm. (measure)/620 nm (reference). Subsequent data analysis was performed with Microsoft Excel 2003 and GraphPad Prism 4.0.

Test [4] deals with Other mutations of Abl kinase that arise during development of resistance (Homo sapiens, UniProt P00519). Description: Inhibition of other Abl kinase resistance mutations (biochemical assays). The conditions noted are these: read-out: inhibition range, other mutations of Abl kinase.
Source text: as §1
(§4) KinaseProfiler™ assays (EMD Millipore Corp. Billerica, Mass., USA) are […] with purified or partially-purified human kinases. Most of the KinaseProfiler™ assays are conducted in 20 mM MOPS, 1 mM EDTA, 0.01% Brij-35, 5% Glycerol, 0.1% b-mercaptoethanol, 1 mg/mL BSA. The assay involves the transfer of ^32P from γ-^32P-ATP to the target peptide, followed by washing and trapping of the labeled peptide on a filter. The concentration of γ-^32P-ATP used was at the established Km for ATP.

Test [5] deals with T2, Abl. Nature of the test: KinaseProfiler kinase activity assay. The format is biochemical. Conditions: Abl wild-type; ATP at Km.
Source text: as §1, §4

Structures are written as SMILES. Where “and” joins values, the source holds several entries; their conditions need not be identical. Equal values may be shown once.

Chain of Ret (P07949 29-1114): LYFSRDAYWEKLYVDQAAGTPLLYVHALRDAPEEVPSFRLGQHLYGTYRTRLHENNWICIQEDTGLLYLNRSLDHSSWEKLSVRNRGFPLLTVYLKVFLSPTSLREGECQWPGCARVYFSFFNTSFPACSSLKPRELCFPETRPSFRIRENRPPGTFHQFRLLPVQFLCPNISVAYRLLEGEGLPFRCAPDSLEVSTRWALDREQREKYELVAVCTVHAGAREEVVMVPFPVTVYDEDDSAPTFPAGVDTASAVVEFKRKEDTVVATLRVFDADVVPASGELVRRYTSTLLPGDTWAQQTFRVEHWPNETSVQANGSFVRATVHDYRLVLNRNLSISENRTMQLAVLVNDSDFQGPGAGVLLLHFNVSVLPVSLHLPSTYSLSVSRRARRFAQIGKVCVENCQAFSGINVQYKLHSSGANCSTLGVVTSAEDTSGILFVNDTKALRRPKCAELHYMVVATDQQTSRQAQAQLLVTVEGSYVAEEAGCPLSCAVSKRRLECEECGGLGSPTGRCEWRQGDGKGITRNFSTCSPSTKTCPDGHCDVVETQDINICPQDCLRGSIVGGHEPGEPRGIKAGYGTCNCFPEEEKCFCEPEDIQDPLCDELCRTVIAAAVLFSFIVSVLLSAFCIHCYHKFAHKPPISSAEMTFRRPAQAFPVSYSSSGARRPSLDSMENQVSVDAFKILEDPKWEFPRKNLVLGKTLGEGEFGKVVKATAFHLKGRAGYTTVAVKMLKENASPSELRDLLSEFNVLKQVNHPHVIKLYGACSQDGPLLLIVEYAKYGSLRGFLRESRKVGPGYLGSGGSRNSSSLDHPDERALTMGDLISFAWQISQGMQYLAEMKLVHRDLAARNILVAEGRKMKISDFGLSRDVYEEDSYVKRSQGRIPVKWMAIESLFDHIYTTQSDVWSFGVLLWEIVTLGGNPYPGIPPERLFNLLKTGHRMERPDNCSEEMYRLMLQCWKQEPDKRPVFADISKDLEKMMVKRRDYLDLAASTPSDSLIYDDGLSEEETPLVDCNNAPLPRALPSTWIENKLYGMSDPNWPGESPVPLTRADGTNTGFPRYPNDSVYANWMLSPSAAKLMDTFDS
Chain of TEK (Q02763 23-1124): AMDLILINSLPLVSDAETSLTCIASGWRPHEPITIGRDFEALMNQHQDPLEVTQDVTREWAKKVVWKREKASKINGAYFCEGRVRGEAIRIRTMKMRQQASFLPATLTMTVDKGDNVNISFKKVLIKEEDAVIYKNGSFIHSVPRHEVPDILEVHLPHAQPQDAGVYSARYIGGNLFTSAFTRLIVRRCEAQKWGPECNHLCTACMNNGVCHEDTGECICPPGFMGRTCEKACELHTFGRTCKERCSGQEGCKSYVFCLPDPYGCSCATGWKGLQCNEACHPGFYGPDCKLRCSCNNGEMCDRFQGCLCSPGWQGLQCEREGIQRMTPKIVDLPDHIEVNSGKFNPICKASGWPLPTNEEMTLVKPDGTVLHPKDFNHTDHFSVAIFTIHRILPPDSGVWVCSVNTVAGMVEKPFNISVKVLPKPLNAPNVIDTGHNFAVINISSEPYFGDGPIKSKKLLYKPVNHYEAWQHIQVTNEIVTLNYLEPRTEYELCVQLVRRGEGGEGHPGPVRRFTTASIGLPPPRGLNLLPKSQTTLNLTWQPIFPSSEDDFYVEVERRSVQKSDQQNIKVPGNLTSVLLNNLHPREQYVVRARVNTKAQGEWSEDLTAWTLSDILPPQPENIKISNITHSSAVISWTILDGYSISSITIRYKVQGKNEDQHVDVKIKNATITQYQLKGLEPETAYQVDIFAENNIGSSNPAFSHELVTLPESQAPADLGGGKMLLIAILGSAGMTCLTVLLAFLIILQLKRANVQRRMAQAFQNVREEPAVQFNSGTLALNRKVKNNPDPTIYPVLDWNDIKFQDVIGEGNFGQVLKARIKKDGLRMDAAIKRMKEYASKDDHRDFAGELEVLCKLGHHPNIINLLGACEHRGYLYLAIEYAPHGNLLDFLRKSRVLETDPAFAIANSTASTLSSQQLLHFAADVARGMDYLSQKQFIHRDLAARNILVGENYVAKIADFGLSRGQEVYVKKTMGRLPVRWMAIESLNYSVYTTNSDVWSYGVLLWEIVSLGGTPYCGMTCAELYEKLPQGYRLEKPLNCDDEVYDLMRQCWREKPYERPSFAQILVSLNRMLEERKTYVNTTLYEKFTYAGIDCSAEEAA
T2 sequence (P00519 whole entry): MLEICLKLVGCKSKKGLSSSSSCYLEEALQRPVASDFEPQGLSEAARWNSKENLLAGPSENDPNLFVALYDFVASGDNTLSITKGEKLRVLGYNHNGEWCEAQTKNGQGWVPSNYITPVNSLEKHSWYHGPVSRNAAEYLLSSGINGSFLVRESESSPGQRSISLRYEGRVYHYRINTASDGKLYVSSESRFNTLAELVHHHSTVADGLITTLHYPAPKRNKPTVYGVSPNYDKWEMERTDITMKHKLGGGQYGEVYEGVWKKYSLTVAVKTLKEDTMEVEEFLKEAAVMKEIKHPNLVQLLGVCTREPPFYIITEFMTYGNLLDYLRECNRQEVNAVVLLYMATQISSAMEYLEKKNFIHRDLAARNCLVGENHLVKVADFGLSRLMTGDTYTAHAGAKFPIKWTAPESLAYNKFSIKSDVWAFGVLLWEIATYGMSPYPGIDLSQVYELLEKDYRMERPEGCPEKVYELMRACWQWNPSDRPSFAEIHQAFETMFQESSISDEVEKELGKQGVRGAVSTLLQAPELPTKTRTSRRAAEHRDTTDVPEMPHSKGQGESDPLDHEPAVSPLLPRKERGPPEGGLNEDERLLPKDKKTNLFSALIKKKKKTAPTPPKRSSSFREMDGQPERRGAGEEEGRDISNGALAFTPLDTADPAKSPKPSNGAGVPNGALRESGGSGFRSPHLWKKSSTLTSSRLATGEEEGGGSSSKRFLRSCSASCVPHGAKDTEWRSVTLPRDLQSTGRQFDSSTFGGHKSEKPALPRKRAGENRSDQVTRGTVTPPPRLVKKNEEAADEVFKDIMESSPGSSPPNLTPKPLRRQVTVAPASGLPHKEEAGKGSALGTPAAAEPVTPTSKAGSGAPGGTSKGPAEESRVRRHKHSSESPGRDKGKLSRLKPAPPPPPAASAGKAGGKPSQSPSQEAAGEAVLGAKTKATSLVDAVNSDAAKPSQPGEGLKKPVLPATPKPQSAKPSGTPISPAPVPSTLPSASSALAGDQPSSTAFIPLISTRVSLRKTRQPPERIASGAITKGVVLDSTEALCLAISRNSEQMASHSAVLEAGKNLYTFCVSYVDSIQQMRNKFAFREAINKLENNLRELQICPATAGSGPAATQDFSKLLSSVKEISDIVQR
Chain of Wee1 (P30291 whole entry): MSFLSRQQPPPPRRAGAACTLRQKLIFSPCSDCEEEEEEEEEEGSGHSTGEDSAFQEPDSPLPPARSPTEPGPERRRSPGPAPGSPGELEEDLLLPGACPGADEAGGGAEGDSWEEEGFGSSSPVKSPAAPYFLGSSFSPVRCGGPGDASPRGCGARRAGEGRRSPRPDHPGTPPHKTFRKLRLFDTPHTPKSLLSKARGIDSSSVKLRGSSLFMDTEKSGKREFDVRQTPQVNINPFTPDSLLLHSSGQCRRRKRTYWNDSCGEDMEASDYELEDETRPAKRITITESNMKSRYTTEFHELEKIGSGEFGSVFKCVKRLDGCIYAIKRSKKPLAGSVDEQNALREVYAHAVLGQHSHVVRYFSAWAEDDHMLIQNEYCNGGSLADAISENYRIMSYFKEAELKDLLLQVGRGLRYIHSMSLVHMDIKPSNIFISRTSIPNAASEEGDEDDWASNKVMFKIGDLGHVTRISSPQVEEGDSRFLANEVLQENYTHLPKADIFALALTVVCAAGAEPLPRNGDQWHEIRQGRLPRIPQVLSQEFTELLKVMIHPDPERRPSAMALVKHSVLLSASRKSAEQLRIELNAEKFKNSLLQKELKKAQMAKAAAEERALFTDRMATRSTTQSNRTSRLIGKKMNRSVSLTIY
T3 sequence (P10721 26-976 V654A): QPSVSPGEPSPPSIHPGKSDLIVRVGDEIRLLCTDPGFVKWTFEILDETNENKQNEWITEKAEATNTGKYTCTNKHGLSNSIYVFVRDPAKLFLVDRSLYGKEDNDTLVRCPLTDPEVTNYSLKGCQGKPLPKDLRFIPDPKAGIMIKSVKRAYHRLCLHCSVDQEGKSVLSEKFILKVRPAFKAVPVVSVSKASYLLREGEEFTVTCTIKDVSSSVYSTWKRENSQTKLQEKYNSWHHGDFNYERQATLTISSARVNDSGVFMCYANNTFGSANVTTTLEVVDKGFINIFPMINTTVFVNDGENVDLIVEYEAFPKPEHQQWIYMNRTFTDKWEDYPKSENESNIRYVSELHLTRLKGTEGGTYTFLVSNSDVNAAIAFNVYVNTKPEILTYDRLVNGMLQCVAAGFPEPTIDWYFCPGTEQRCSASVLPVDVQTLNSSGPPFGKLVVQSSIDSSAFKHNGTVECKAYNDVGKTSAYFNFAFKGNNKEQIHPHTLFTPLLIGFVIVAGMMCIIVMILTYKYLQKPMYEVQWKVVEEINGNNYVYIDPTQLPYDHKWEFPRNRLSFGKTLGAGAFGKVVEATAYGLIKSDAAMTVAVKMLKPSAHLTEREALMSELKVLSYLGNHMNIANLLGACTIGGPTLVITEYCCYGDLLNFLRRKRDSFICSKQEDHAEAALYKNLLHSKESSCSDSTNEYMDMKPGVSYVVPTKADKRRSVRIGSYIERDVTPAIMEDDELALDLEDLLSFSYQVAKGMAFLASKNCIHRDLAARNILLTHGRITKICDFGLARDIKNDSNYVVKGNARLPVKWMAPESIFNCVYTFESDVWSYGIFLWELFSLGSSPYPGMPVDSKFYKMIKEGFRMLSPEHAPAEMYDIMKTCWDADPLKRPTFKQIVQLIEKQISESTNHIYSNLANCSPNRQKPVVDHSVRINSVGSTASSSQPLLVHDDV
Chain of c-Kit (P10721 26-976): as the sequence (P10721 26-976 V654A) above, with A629V counted along it
Chain of Ret (V804M) (P07949 29-1114 V804M): as the sequence (P07949 29-1114) above, with V776M counted along it
Chain of Other mutations of Abl kinase that arise during development of resistance (P00519 whole entry, looked up, change not shown): as the sequence (P00519 whole entry) above
Chain of Ret (V804L) (P07949 29-1114 V804L): as the sequence (P07949 29-1114) above, with V776L counted along it
Description for c-Kit (V560G): (§5) KinaseProfiler™ assays (EMD Millipore Corp. Billerica, Mass., USA) are radioligand binding assays with purified or partially-purified human kinases. Most of the KinaseProfiler™ assays are conducted in 20 mM MOPS, 1 mM EDTA, 0.01% Brij-35, 5% Glycerol, 0.1% b-mercaptoethanol, 1 mg/mL BSA. The assay involves the transfer of ^32P from γ-^32P-ATP to the target peptide, followed by washing and trapping of the labeled peptide on a filter. The concentration of γ-^32P-ATP used was at the established Km for ATP.
Description for c-Kit (V654A): as §5

With `Nc1nc(Nc2ccc3c(c2)CC[C@@H](N2CCCC2)CC3)nn1-c1cc2c(nn1)-c1ccccc1CCC2` [Compound A, 1-(6,7-dihydro-5H-benzo[6,7]cyclohepta[1,2-c]pyridazine-3-yl)-N^3-(7-(S)-(pyrrolidin-1-yl)-6,7,8,9-tetrahydro-5H-benzo[7]annulene-2-yl)-1H-1,2,4-triazole-3,5-diamine], the IC50 against c-Kit (V560G) was 45 nM; on c-Kit (V654A), 286 nM; against Ret (V804L), 11 nM; against Flt1, 40 nM; at TEK, 30 nM and 41 nM; on Flt3 it was 122 nM. The IC50 against Ret (V804M) was determined as 21 nM; at Flt3 (D835Y), 13 nM; against Stk10, 22 nM; at Flt4, 41 nM; against Yes, 43 nM; on Wee1 it was 32 nM. In addition, the IC50 against Ret was 38 nM and 22 nM; in test [3], 570 nM; in [4] it was 16 to 32 nM; against Abl [5], 51 nM. In addition, the dissociation constant (Kd) at c-Kit was determined as 104 nM; on Abl [1] it was 52 nM. Besides, in [2], the “inhibition range, Flt3 mutations” value was in the range of 8 to 29 nM.
